# Article PMC6271078 (Molecules, 2014)
# Structures can show the parent of a compound that is named as a salt.
# How the values were obtained:
# Aqueous solubility = type: physicochemical; settings: for Times Increased of Aqueous Solubility (Comp. vs. Rapa): ratio of compound solubility to Rapa solubility
# [1] = cited from earlier work
Structure (SMILES),melting point [°C],solubility (Aqueous solubility; water) [mg/mL],other results
"CO[C@H]1C[C@@H]2CC[C@@H](C)[C@@](O)(O2)C(=O)C(=O)N2CCCC[C@H]2C(=O)O[C@H]([C@H](C)C[C@@H]2CC[C@@H](O)[C@H](OC)C2)CC(=O)[C@H](C)/C=C(\C)[C@@H](OC(=O)C[n+]2ccccc2)[C@@H](OC)C(=O)[C@H](C)C[C@H](C)/C=C/C=C/C=C/1C (as salt: ammonium) [Compound 10, Rapa-31-ester of 2-(pyridinium-1-yl)acetic Acid]",140 to 142,–,–
"CO[C@H]1C[C@@H]2CC[C@@H](C)[C@@](O)(O2)C(=O)C(=O)N2CCCC[C@H]2C(=O)O[C@H]([C@H](C)C[C@@H]2CC[C@@H](OC(=O)C[n+]3cscc3C)[C@H](OC)C2)CC(=O)[C@H](C)/C=C(\C)[C@@H](O)[C@@H](OC)C(=O)[C@H](C)C[C@H](C)/C=C/C=C/C=C/1C (as salt: ammonium) [Compound 2, Rapa-42-ester of 2-(4-methylthiazolium-3-yl)acetic Acid]",130 to 133,–,–
"CO[C@H]1C[C@@H]2CC[C@@H](C)[C@@](O)(O2)C(=O)C(=O)N2CCCC[C@H]2C(=O)O[C@H]([C@H](C)C[C@@H]2CC[C@@H](O)[C@H](OC)C2)CC(=O)[C@H](C)/C=C(\C)[C@@H](OC(=O)C[n+]2cscc2C)[C@@H](OC)C(=O)[C@H](C)C[C@H](C)/C=C/C=C/C=C/1C (as salt: ammonium) [Compound 8, Rapa-31-ester of 2-(4-methylthiazolium-3-yl)acetic Acid]",130 to 132,–,–
"CO[C@H]1C[C@@H]2CC[C@@H](C)[C@@](O)(O2)C(=O)C(=O)N2CCCC[C@H]2C(=O)O[C@H]([C@H](C)C[C@@H]2CC[C@@H](O)[C@H](OC)C2)CC(=O)[C@H](C)/C=C(\C)[C@@H](OC(=O)C[n+]2cccc(C)c2)[C@@H](OC)C(=O)[C@H](C)C[C@H](C)/C=C/C=C/C=C/1C (as salt: ammonium) [Compound 9, Rapa-31-ester of 2-(3-methylpyridinium-1-yl)acetic Acid]",138 to 140,–,–
"CO[C@H]1C[C@@H]2CC[C@@H](C)[C@@](O)(O2)C(=O)C(=O)N2CCCC[C@H]2C(=O)O[C@H]([C@H](C)C[C@@H]2CC[C@@H](O)[C@H](OC)C2)CC(=O)[C@H](C)/C=C(\C)[C@@H](O)[C@@H](OC)C(=O)[C@H](C)C[C@H](C)/C=C/C=C/C=C/1C [Rapa, Rapamycin, reference compound]",–,0.0026,Times Increased of Aqueous Solubility (Comp. vs. Rapa) (Aqueous solubility): 1; oral bioavailability [1]: 10%
"CO[C@H]1C[C@@H]2CC[C@@H](C)[C@@](O)(O2)C(=O)C(=O)N2CCCC[C@H]2C(=O)O[C@H]([C@H](C)C[C@@H]2CC[C@@H](OC(=O)C[n+]3cccc(C)c3)[C@H](OC)C2)CC(=O)[C@H](C)/C=C(\C)[C@@H](O)[C@@H](OC)C(=O)[C@H](C)C[C@H](C)/C=C/C=C/C=C/1C (as salt: ammonium) [Compound 4, Rapa-42-ester of 2-(3-methylpyridinium-1-yl)acetic Acid]",138 to 140,–,–
"CO[C@H]1C[C@@H]2CC[C@@H](C)[C@@](O)(O2)C(=O)C(=O)N2CCCC[C@H]2C(=O)O[C@H]([C@H](C)C[C@@H]2CC[C@@H](OC(=O)C[n+]3ccc(C)cc3)[C@H](OC)C2)CC(=O)[C@H](C)/C=C(\C)[C@@H](O)[C@@H](OC)C(=O)[C@H](C)C[C@H](C)/C=C/C=C/C=C/1C (as salt: ammonium) [Compound 6, Rapa-42-ester of 2-(4-methylpyridinium-1-yl)acetic Acid]",157 to 160,–,–
"CO[C@H]1C[C@@H]2CC[C@@H](C)[C@@](O)(O2)C(=O)C(=O)N2CCCC[C@H]2C(=O)O[C@H]([C@H](C)C[C@@H]2CC[C@@H](OC(=O)C[n+]3cccc(O)c3)[C@H](OC)C2)CC(=O)[C@H](C)/C=C(\C)[C@@H](O)[C@@H](OC)C(=O)[C@H](C)C[C@H](C)/C=C/C=C/C=C/1C (as salt: ammonium) [Compound 5, Rapa-42-ester of 2-(3-hydroxypyridinium-1-yl)acetic Acid]",146 to 148,–,–
"CO[C@H]1C[C@@H]2CC[C@@H](C)[C@@](O)(O2)C(=O)C(=O)N2CCCC[C@H]2C(=O)O[C@H]([C@H](C)C[C@@H]2CC[C@@H](O)[C@H](OC)C2)CC(=O)[C@H](C)/C=C(\C)[C@@H](OC(=O)C[n+]2ccccc2)[C@@H](OC)C(=O)[C@H](C)C[C@H](C)/C=C/C=C/C=C/1C [Compound 10, Rapa-31-ester of 2-(pyridinium-1-yl)acetic Acid]",–,62,Aqueous Solubility (Aqueous solubility; water): 52.6 mg/mL
"CO[C@H]1C[C@@H]2CC[C@@H](C)[C@@](O)(O2)C(=O)C(=O)N2CCCC[C@H]2C(=O)O[C@H]([C@H](C)C[C@@H]2CC[C@@H](OC(=O)C[n+]3ccc(C)cc3)[C@H](OC)C2)CC(=O)[C@H](C)/C=C(\C)[C@@H](O)[C@@H](OC)C(=O)[C@H](C)C[C@H](C)/C=C/C=C/C=C/1C [Compound 6, Rapa-42-ester of 2-(4-methylpyridinium-1-yl)acetic Acid]",–,6,Times Increased of Aqueous Solubility (Comp. vs. Rapa) (Aqueous solubility): 2308
"CO[C@H]1C[C@@H]2CC[C@@H](C)[C@@](O)(O2)C(=O)C(=O)N2CCCC[C@H]2C(=O)O[C@H]([C@H](C)C[C@@H]2CC[C@@H](OC(=O)C[n+]3ccccc3)[C@H](OC)C2)CC(=O)[C@H](C)/C=C(\C)[C@@H](O)[C@@H](OC)C(=O)[C@H](C)C[C@H](C)/C=C/C=C/C=C/1C (as salt: ammonium) [Compound 3, Rapa-42-ester of 2-(pyridinium-1-yl)acetic Acid]",135 to 137,–,–
"CO[C@H]1C[C@@H]2CC[C@@H](C)[C@@](O)(O2)C(=O)C(=O)N2CCCC[C@H]2C(=O)O[C@H]([C@H](C)C[C@@H]2CC[C@@H](O)[C@H](OC)C2)CC(=O)[C@H](C)/C=C(\C)[C@@H](OC(=O)C[n+]2csc(C)c2C)[C@@H](OC)C(=O)[C@H](C)C[C@H](C)/C=C/C=C/C=C/1C [Compound 7, Rapa-31-ester of 2-(4,5-dimethylthiazolium-3-yl)acetic Acid]",–,23.3,Times Increased of Aqueous Solubility (Comp. vs. Rapa) (Aqueous solubility): 8962
"CO[C@H]1C[C@@H]2CC[C@@H](C)[C@@](O)(O2)C(=O)C(=O)N2CCCC[C@H]2C(=O)O[C@H]([C@H](C)C[C@@H]2CC[C@@H](O)[C@H](OC)C2)CC(=O)[C@H](C)/C=C(\C)[C@@H](OC(=O)C[n+]2ccc(C)cc2)[C@@H](OC)C(=O)[C@H](C)C[C@H](C)/C=C/C=C/C=C/1C (as salt: ammonium) [Compound 11, Rapa-31-ester of 2-(4-methylpyridinium-1-yl)acetic Acid]",145 to 148,–,–
